According to ChEMBL document CHEMBL3352474, “Design, synthesis and biological evaluation of FLT3 covalent inhibitors with a resorcylic acid core” (Bioorg Med Chem, 2014):

Tests used:
[1] = molecular target: T1, Receptor-type tyrosine-protein kinase FLT3 (Homo sapiens, UniProt P36888); test: Inhibition of recombinant FLT3 (unknown origin) by TR-FRET assay
T1 sequence (P36888 whole entry): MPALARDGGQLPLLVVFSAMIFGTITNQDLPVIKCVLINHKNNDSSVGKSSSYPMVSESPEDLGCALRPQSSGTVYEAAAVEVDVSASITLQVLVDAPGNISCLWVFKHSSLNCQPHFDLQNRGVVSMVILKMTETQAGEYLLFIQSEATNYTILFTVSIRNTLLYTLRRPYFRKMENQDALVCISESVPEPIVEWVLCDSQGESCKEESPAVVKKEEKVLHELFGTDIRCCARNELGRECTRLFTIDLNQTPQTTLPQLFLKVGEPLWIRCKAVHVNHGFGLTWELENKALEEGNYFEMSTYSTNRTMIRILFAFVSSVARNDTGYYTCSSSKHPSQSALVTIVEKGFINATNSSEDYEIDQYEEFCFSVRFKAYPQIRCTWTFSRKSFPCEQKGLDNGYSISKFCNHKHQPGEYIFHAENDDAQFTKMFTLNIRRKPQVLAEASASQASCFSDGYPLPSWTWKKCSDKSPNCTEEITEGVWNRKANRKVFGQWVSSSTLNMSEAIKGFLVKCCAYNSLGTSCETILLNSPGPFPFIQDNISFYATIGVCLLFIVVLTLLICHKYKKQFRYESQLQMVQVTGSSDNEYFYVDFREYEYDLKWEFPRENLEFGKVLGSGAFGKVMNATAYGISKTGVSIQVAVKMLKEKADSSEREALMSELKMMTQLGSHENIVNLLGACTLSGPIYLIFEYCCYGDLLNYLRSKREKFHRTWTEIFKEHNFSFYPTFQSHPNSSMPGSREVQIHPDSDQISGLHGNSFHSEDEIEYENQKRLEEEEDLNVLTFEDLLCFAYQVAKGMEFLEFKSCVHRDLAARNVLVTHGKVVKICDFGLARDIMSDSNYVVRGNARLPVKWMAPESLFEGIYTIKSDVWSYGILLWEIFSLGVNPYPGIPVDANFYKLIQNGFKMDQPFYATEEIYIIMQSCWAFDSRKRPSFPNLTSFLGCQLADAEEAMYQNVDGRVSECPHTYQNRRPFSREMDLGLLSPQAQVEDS

[2] = molecular target: Receptor-type tyrosine-protein kinase FLT3 (Homo sapiens, UniProt P36888, ITD); test: Inhibition of recombinant FLT3 ITD mutant (unknown origin) by RBC kinase assay
MV4-11 [3] = test: Antiproliferative activity against human MV4-11 cells after 72 hrs by luminescent cell viability assay; format: functional, cell-based; settings: MV4-11, 72 h
[4] = molecular target: MAP kinase-interacting serine/threonine-protein kinase 1 (Homo sapiens) (UniProt Q9BUB5); test: Inhibition of MNK1 (unknown origin) at 10 uM
[5] = Antiproliferative activity against human THP1 cells after 72 hrs by luminescent cell viability assay; format: functional, cell-based; settings: THP-1, 72 h
[6] = Antiproliferative activity against human THP1 cells assessed as growth inhibition at 5 uM after 72 hrs by luminescent cell viability assay; format: functional; settings: THP-1, 72 h, read-out: GI
K562 = test: Antiproliferative activity against human K562 cells assessed as growth inhibition at 5 uM after 72 hrs by luminescent cell viability assay; format: functional; settings: K562, 72 h, read-out: GI
[7] = Antiproliferative activity against human HL60 cells assessed as growth inhibition at 5 uM after 72 hrs by luminescent cell viability assay; format: functional; settings: HL-60, 72 h, read-out: GI
[8] = Antiproliferative activity against human HEK293T cells assessed as growth inhibition at 5 uM after 72 hrs by luminescent cell viability assay; format: cell-based, HEK-293T; settings: read-out: GI
MV4-11 [9] = test: Antiproliferative activity against human MV4-11 cells assessed as growth inhibition at 5 uM after 72 hrs by luminescent cell viability assay; format: functional; settings: MV4-11, 72 h, read-out: GI
[10] = molecular target: MAP kinase-interacting serine/threonine-protein kinase 2 (Homo sapiens) (UniProt Q9HBH9); test: Inhibition of MNK2 (unknown origin) at 10 uM
[11] = molecular target: Receptor-type tyrosine-protein kinase FLT3 (Homo sapiens, UniProt P36888, D835Y); test: Inhibition of recombinant FLT3 D835Y mutant (unknown origin) by TR-FRET assay

Chain of MAP kinase-interacting serine/threonine-protein kinase 1 (Homo sapiens) (Q9BUB5 whole entry, looked up): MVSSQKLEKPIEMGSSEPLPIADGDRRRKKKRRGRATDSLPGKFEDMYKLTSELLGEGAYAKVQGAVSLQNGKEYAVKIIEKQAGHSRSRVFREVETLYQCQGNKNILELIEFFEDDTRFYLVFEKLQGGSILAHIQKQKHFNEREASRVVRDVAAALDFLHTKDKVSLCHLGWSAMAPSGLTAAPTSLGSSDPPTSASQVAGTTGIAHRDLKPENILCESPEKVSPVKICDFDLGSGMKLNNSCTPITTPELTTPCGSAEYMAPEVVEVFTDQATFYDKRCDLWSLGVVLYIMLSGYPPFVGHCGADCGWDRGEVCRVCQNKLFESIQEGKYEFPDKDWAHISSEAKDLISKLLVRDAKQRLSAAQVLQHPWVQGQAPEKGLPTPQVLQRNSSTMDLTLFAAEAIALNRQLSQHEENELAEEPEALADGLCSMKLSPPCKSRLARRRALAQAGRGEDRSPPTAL
Chain of MAP kinase-interacting serine/threonine-protein kinase 2 (Homo sapiens) (Q9HBH9 whole entry, looked up): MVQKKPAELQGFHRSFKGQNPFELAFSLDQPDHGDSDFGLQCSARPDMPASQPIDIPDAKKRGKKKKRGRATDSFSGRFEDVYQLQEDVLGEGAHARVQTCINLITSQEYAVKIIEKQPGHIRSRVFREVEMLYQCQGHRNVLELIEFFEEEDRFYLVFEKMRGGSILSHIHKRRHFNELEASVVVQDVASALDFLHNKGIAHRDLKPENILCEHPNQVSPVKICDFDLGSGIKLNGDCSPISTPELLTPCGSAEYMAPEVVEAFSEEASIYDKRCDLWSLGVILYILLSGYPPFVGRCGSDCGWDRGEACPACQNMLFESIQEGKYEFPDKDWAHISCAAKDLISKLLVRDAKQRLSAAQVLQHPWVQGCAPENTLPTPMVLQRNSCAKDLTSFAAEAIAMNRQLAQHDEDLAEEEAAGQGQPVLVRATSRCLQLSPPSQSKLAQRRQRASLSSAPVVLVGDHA

SMILES | IC50 [1] [µM] | IC50 [2] [µM] | IC50 (MV4-11 [3]) [µM] | inhibition [4] [%] | inhibition [10] [%] | IC50 [11] [µM] | IC50 [5] [µM] | inhibition of growth at 5 µM [6] [%] | inhibition of growth at 5 µM (K562) [%] | inhibition of growth at 5 µM [7] [%] | inhibition at 72 h, 5 µM [8] [%] | inhibition of growth at 5 µM (MV4-11 [9]) [%]
COc1cc(O)c(C(=O)OCC(C)c2ccccc2)c(/C=C/CN2C(=O)C=CC2=O)c1 (stereo unspecified) | 3.01 | > 30 | 3.38 | 8.6 | 0 | 5.2 | > 10 | 0 | 74.9 | 56 | 0 | 99
C=CS(=O)(=O)NC/C=C/c1cc(OC)cc(O)c1C(=O)OCc1ccc(F)cc1 | ≥ 30 | ≥ 30 | 5.14 | – | – | ≥ 30 | 6.55 | 41.7 | 52 | 10.9 | 0 | 70.5
COc1cc(O)c(C(=O)OCC2CCCCC2)c(/C=C/CN2C(=O)C=CC2=O)c1 | 2.69 | > 30 | 1.97 | 9.7 | 0 | 2.1 | 7.71 | 5.9 | 85.1 | 71 | 6.9 | 99.8
COc1cc(O)c2c(c1)CCC[C@H](O)[C@H](O)C(=O)/C=C\C[C@H](C)OC2=O | 0.062 | 0.036 | 0.01 | – | – | 0.011 | 1.18 | 81.5 | 69.7 | 86 | 74.6 | 99.7
COc1cc(/C=C/CN2C(=O)C=CC2=O)c(C(=O)OC(C)C)c(OC(C)=O)c1 | 3.37 | 21.8 | 2.15 | 6.7 | 5 | 3.61 | 10.4 | 3.3 | 99.2 | 87.9 | 47.4 | 99.8
C=CC(=O)NC/C=C/c1cc(OC)cc(O)c1C(=O)O[C@@H](C)C(C)C | ≥ 30 | ≥ 30 | > 10 | – | – | ≥ 30 | – | – | – | – | – | –
COc1cc(O)c(C(=O)OC(C)C)c(/C=C/CNC(C)=O)c1 | > 50 | – | > 10 | – | – | 14.2 | – | – | – | – | – | –
COc1cc(O)c(C(=O)OCc2ccc(Br)cc2)c(/C=C/CN2C(=O)C=CC2=O)c1 | 1.9 | > 30 | 1.01 | 4.3 | 0 | 1.74 | 7.97 | 0 | 28.7 | 36.7 | 20.1 | 97.9
CC(C)OC(=O)c1c(O)cc(OCCN2CCOCC2)cc1CCCN1C(=O)C=CC1=O | 0.58 | 8.87 | 3.51 | 8.8 | 1.8 | 0.81 | 5.43 | 81.5 | 99.3 | 98.9 | 13.3 | 99.8
CCN(CC)C/C=C/C(=O)NC/C=C/c1cc(OC)cc(O)c1C(=O)O[C@@H](C)C(C)C | ≥ 30 | ≥ 30 | > 10 | – | – | ≥ 30 | – | – | – | – | – | –
C=CC(=O)NC/C=C/c1cc(OCCCN2CCOCC2)cc(O)c1C(=O)OC(C)C | 9.61 | 0.5 | 3.74 | 8 | 6.5 | 2.81 | 20.7 | 9.1 | 23 | 8.1 | 26.5 | 73.9
C/C=C/C(=O)NC/C=C/c1cc(OCCc2ccc(F)cc2)cc(O)c1C(=O)OC(C)C | ≥ 30 | ≥ 30 | > 10 | – | – | ≥ 30 | – | – | – | – | – | –
C=CS(=O)(=O)NC/C=C/c1cc(OC)cc(O)c1C(=O)OCc1ccc(Br)cc1 | ≥ 30 | ≥ 30 | 6.06 | – | – | ≥ 30 | 6.24 | 31.2 | 38.4 | 8.1 | 0 | 61

The next lines start with results.

IC50 [1] [µM] | IC50 [2] [µM] | IC50 (MV4-11 [3]) [µM] | inhibition [4] [%] | inhibition [10] [%] | IC50 [11] [µM] | SMILES | IC50 [5] [µM] | inhibition of growth at 5 µM [6] [%] | inhibition of growth at 5 µM (K562) [%] | inhibition of growth at 5 µM [7] [%] | inhibition at 72 h, 5 µM [8] [%] | inhibition of growth at 5 µM (MV4-11 [9]) [%]
> 30 | 8.31 | 4.45 | 5.6 | 1.1 | > 30 | C=CC(=O)NC/C=C/c1cc(OCCc2ccc(F)cc2)cc(O)c1C(=O)OC(C)C | > 10 | 23.2 | 18.5 | 12.2 | 25.8 | 61.8
0.15 | 0.98 | 1.89 | 8 | 3.1 | 0.94 | CC(C)OC(=O)c1c(O)cc(OCCCN2CCOCC2)cc1/C=C/CN1C(=O)C=CC1=O | 7.88 | 62.5 | 95.9 | 89.1 | 38.8 | 99.8
≥ 30 | ≥ 30 | > 10 | – | – | ≥ 30 | C/C=C/C(=O)NC/C=C/c1cc(OC)cc(O)c1C(=O)OC(C)C | – | – | – | – | – | –
≥ 30 | ≥ 30 | > 10 | – | – | ≥ 30 | C=CC(=O)NC/C=C/c1cc(OC)cc(O)c1C(=O)OC(C)C | – | – | – | – | – | –
≥ 30 | ≥ 30 | 5.86 | – | – | ≥ 30 | C=CS(=O)(=O)NC/C=C/c1cc(OC)cc(O)c1C(=O)OCC1CCCCC1 | 7.88 | 26.5 | 27.4 | 7.5 | 31.2 | 56.4
> 30 | 4.23 | 7.61 | – | – | 18.6 | C=CS(=O)(=O)NCCCc1cc(OCCN2CCOCC2)cc(O)c1C(=O)OC(C)C | > 10 | 0 | 13.8 | 2 | 28.4 | 20.4
0.54 | 9.79 | 1.73 | 5.4 | 4.1 | 1.34 | COc1cc(O)c(C(=O)OC(C)C)c(/C=C/CN2C(=O)C=CC2=O)c1 | 7.32 | 41.8 | 95.7 | 65.7 | 8 | 99.8
≥ 30 | ≥ 30 | 7.73 | – | – | ≥ 30 | C=CS(=O)(=O)NC/C=C/c1cc(OC)cc(O)c1C(=O)OCC(C)c1ccccc1 (stereo unspecified) | > 10 | 5.6 | 16.7 | 9.5 | 22.5 | 9.6
16.2 | – | > 10 | 5.8 | 12.9 | 10.5 | C/C=C/C(=O)NC/C=C/c1cc(OCCCN2CCOCC2)cc(O)c1C(=O)OC(C)C | – | – | – | – | – | –
> 30 | – | > 10 | 12.5 | 5.2 | 15.9 | CCN(CC)C/C=C/C(=O)NC/C=C/c1cc(OC)cc(O)c1C(=O)OC(C)C | – | – | – | – | – | –
